Measurements published in patent US20010055627A1, “Compositions And Methods For Regulating Lipoproteins And Hypercholesterolemia With Limonoids, Flavonoids And Tocotrienols” (priority 1997, published 2001).
In brackets after ≈: the same amount, converted by molar mass. Read-outs that look alike come from different tables or passages of the source. Each block holds one compound with its values, some of them ahead of it.

How the values were obtained:
[1] = test system: apo-B production in HepG2 cells; experiment: Apo-B content of medium of HepG2 cells by ELISA; type: cell-based, human; settings: for effect on apo-B levels/content / reduction of medium apo-B levels: HepG2, 24 h; for reduction of medium apo-B levels: 50 μg/mL, per mg cell protein, versus control
Experimental: Cell Culture: Confluent HepG2 cells were preincubated in minimum essential medium (MEM) containing 1.0% bovine serum albumin (BSA) for 24 hours. This was followed by a second 24 hour incubation with or without various non-toxic concentrations of naringenin or hesperitin (7.5-60 ug/ml). At the end of the second 24 hour incubation, the apo-B content of the media was determined by enzyme-lined immunosorbent assay (ELISA) (Young et al., 1986, Clin. Chem. 32:1484-1490).
Protein Determination: The soluble cellular protein was extracted and measured using Pierce Coomassie Plus Protein Assay.
(§1) The limonoids, limonin and nomilin were examined for the cholesterol-lowering potential in HepG2 cells. Confluent HepG2 cells were preincubated for 24 h in a lipoprotein-free medium in which the fetal bovine serum was replaced by albumin to inhibit cell proliferation and to stimulate synthesis of cholesterol-containing lipoproteins. Cells were subsequently incubated for another 24 h in the same medium in the presence or absence of limonoids at the highest concentrations sustaining 100% cell viability, as determined by 3-(4,5-dimethylthiazol-2-yl)-2,5-diphenyltetrazolium bromide (MTT) viability assay. The limonoids were added to the cell culture medium after solubilization in dimethyl sulfoxide (DMSO). At the end of the incubation, culture media were collected and the concentration of the LDL structural protein, apo-B, was measured by Elisa by procedures already described in Section 6.0. Amount of lipoprotein-associated apo-B in the media (net apo-B secretion) was determined as described previously, calculated per mg cell protein and expressed as percent of control.
Apo-B productioon (the structural protein of LDL) was studied in HepG2 cells, using a 24. The effect of flavonoids on apo-B production after 24 h incubation of cells and measuring apo-B by Elisa as described above. All flavonoids, reduced the apo-B levels dose dependently.

[2] = test system: casein-induced hypercholesterolemia; experiment: Serum lipoprotein cholesterol in rabbits fed cholesterol-free casein diet with citrus juice; type: in vivo; settings: rabbits on casein diet, 3 weeks; hesperitin given as orange juice, naringenin as grapefruit juice (two times regular strength)
Source text: The effect of naringenin and hesperetin on casein-induced hypercholesterolemia was studied in rabbits. In each of the two experiments, rabbits were assigned to thee experimental groups. Each group was given semipurified, cholesterol-free casein diet and either water, orange juice or grapefruit juice to drink. The control group received water to drink and the experimental groups were given either orange juice or grapefruit juice (reconstituted concentrates made up to two times the regular strength). […] FIG. 1 depicts the design of the experiment.
Dextrose in the diets of the hesperitin (orange juice) and naringenin (grapefruit juice) groups was reduced to account for the sugar consumed via citrus juices. All other dietary components were left unchanged. (Table 1).
Serum Analysis: At the end of the study, VLDL, LDL and HDL fractions were separated by discontinuous density gradient ultracentrifugation. Total cholesterol in serum and in each lipoprotein fraction were measured using the Boehinger Manheim CHOL kit (Manheim, Germany).

[3] = Growth performance of hamsters fed experimental diets; type: in vivo, Golden Syrian hamsters; settings: supplement level as in label, means ± SD; for Growth Rate: diet for 35 days; for Food Consumption: last two weeks of treatment
Experimental: (§2) Fifty four male Golden Syrian hamsters weighing 100-120 g at arrival were housed individually in a constant temperature 21-24° C. and with 12 h light:dark cycle. The animals were fed ground chow diet for 1 week. Thereafter, they were divided into seven groups (six groups of 8 animals and one group of 6 animals), each with similar average body weight, and fed experimental diets for 35 days. Food and water were provided at libitum. Food consumption was estimated during the last two weeks of treatment, for thee consecutive days during each week.
(§3) The basal composition was similar to that described earlier. All diets contained 25% casein and 0.1% cholesterol. Experimental diets contained TTP and/or principal flavonoids, hesperidin or naringenin, added at indicated levels at the expense of rice flour.

[4] = test system: hamster model of experimental hypercholesterolemia; experiment: Serum lipids in hamster model of experimental hypercholesterolemia (casein, cholesterol-enriched diet); type: in vivo, Golden Syrian hamsters; settings: hamsters; for HDL cholesterol (serum) / Total cholesterol (serum) / Total triacylglycerols (serum) / VLDL + LDL Cholesterol (serum) / VLDL + LDL/HDL cholesterol ratio: 35 days on diet; for HDL cholesterol (serum) / Total cholesterol (serum) / Total triacylglycerols (serum): supplement level as in label; for HDL cholesterol (serum) / Total cholesterol (serum) / VLDL + LDL Cholesterol (serum) / VLDL + LDL/HDL cholesterol ratio: mean; for Total triacylglycerols (serum): means ± SD; for VLDL + LDL Cholesterol (serum): difference between total and HDL cholesterol
Experimental: Extracted flavonoids and a tocotrienol-rich preparation from palm oil, all provided by KGK Synergize Inc. London, Ontario, were tested in the hamster model of experimental hypercholesterolemia. The purpose of the study was to establish whether in this model, 2% supplementation of casein diet with palm tocotrienol preparation containing 70% of pure tocotrienols α-, γ- and δ-(TTP), or a similar 2% supplementation with flavonoids, hesperidin extrated from oranges and naringin extrated from grapefruit, could lower the elevated LDL cholesterol levels induced by casein. A further purpose of the study was to determine whether supplementation with 2% TTP in combination with 2% hesperidin or 2% naringin could result in synergistic cholesterol-lowering effects. Synergistic cholesterol-lowering responses have been observed for combinations of tocotrienols and citrus flavonoids in human liver cell line HepG2. The additional goal of this study was to establish whether in the same hamster model of hypercholesterolemia, 0.13% supplementation of casein diet with a mixture of polymethoxylated flavones from tangerines (PMF) could lower the elevated LDL cholesterol levels induced by casein. This experiment was based on previous tests In vitro using human liver cell line HepG2, in which principal flavonoids from PMF, tangeretin and nobiletin, had much greater cholesterol-lowering potential than hesperetin or naringenin.
In hamsters, feeding a semipurified, casein-based, cholesterol-enriched diet for the period of 5 weeks induces experimental hypercholesterolemia associated with elevation of LDL cholesterol, similar to that observed in humans.
as §2, §3
At the end of the study, the animals were fasted overnight and blood samples were taken by heart puncture. Total cholesterol in whole serum and in HDL fraction as well as total triacylglycerols were measured by enzymatic timed-endpoint methods, using the Beckman Coulter reagents (CHOL Reagent, HDLD HDL Reagent and TG Triglycerides GPO Reagent, respectively). All measurements were performed using SYNCHON LX System. VLDL+LDL cholesterol concentrations were calculated as a difference between total and HDL cholesterol. Results obtained were analyzed by one-way ANOVA followed by Dunnet's or Student-Newman-Keuls test for all groups and additionally by t-test for the PMF vs. the control group. Significant differences were reported at p<0.05.

[5] = test system: 14C-acetate incorporation into cellular lipids in HepG2 cells; experiment: 14C-acetate incorporation into cellular lipids of HepG2 cells; type: cell-based, human; settings: HepG2, 24 h, 50 μg/ml (highest non-toxic concentration)
Experimental: ^14C-acetate Incorporation: To determine whether exposure to flavonoids can also alter intracellular lipid metabolism, confluent HepG2 cells were incubated for 24 hours with the highest apo-B-reducing, non-toxic concentration of these flavonoids, in the presence of ^14C-acetate (0.5u Ci/ml medium). Radiolabelled lipids were then extracted from cells using heptane/isopropyl alcohol (3:2, v/v), and separated by thin layer chomatrography. A hexane/ethyl ether/acetic acid solvent (75:25:1, v/v) was used to separate cholesterol, cholesterol esters and triglycerides. Lipid fractions were scraped into scintillation vials and the radioactivity was measured using Beckman Scintillation Counter.
To determine whether exposure to limonin altered intracellular lipid metabolism, confluent HepG2 cells were incubated for 24 h with or without the highest non-cytotoxic concentration of limonin. During the last 5 h of the incubation, ^14C-acetate (0.5 μCi/mL) was added to the medium. The extraction and separation of cellular lipids was done described above.

HepG2 cells = experiment: MTT viability assay, highest non-toxic concentration; type: cell-based, human; settings: HepG2, 100% cell viability by MTT
Experimental: as §1

[6] = Homo sapiens, HepG2, comparison of limonin and flavonoids, FIG. 5, read-out: IC50 apo-B content
[7] = five weeks, versus control diet, 2% in diet (PMF 0.13%)

Compound: COc1ccc(-c2cc(=O)c3c(OC)c(OC)c(OC)c(OC)c3o2)cc1 [tangeretin]
IC50 apo-B production ([1]; HepG2, 24 h incubation, ELISA): 2.5 µg/mL (≈ 6.71 µM)

IC50 apo-B production ([1]; HepG2, 24 h incubation, ELISA): 4.9 µg/mL (≈ 12.2 µM)
Compound: COc1ccc(-c2cc(=O)c3c(OC)c(OC)c(OC)c(OC)c3o2)cc1OC [nobiletin]

IC50 ([1]; Homo sapiens, HepG2, 24 h incubation, ELISA, read-out: IC50 apo-B production): 48.5 µg/mL
IC50 [1, 6]: 48.5 µM
Compound: O=C1C[C@@H](c2ccc(O)cc2)Oc2cc(O)cc(O)c21 [naringenin]
reduction of LDL cholesterol levels compared with those given water [2]: 32%
effect on apo-B levels/content [1]: reduced the apo-B content in a dose-dependent manner

Compound: C[C@@H]1O[C@@H](O[C@H]2[C@H](Oc3cc(O)c4c(c3)O[C@H](c3ccc(O)cc3)CC4=O)O[C@H](CO)[C@@H](O)[C@@H]2O)[C@H](O)[C@H](O)[C@H]1O [naringin]
Growth Rate [3]: 1.03 ± 0.26 g/day
Food Consumption [3]: 10.44 ± 2.36 g/day
HDL cholesterol (serum) [4]: 3.89 mM/L
Total cholesterol (serum) [4]: 6.56 mM/L
Total triacylglycerols (serum) [4]: 3.58 ± 1.40 mM/L
VLDL + LDL Cholesterol (serum) [4]: 2.66 mM/L
VLDL + LDL/HDL cholesterol ratio [4]: 0.68
Percent change HDL cholesterol ([4]; 35 days, versus control diet): −11%
Percent change Total cholesterol ([4]; 35 days, versus control diet): −11%
Percent change VLDL + LDL Cholesterol ([4]; 35 days, versus control diet): −12%
reduction of serum HDL cholesterol [4, 7]: 11%
reduction of serum total cholesterol [4, 7]: 11%

IC50 concentration times lower than for both flavonoids (hesperetin, naringenin) ([1]; HepG2 apo-B): 2-2.4 times
IC50 [1, 6]: 20.5 µM
Compound: CC1(C)O[C@H]2CC(=O)OC[C@]23[C@H]2CC[C@@]4(C)[C@H](c5ccoc5)OC(=O)[C@H]5O[C@]54[C@]2(C)C(=O)C[C@@H]13 [limonin]
effect on apo-B levels/content [1]: reduced the apo-B content in a dose-dependent manner
reduction of medium apo-B levels [1]: 74%
effect on 14C-acetate incorporation into cellular cholesterol, cholesteryl esters and triacylglycerols [5]: no effect
highest non-toxic concentration (HepG2 cells): 50 µg/mL

Compound: CC(=O)O[C@H]1CC(=O)OC(C)(C)[C@@H]2CC(=O)[C@]3(C)[C@H](CC[C@@]4(C)[C@H](c5ccoc5)OC(=O)[C@H]5O[C@]543)[C@@]12C [nomilin]
reduction of medium apo-B levels [1]: 40%

Compound: COc1ccc([C@@H]2CC(=O)c3c(O)cc(O)cc3O2)cc1O [hesperetin]
reduction of LDL cholesterol levels compared with those given water [2]: 43%
effect on apo-B levels/content [1]: reduced the apo-B content in a dose-dependent manner
IC50 apo-B production ([1]; HepG2, 24 h incubation, ELISA): 43.0 µg/mL (≈ 142 µM)
IC50 ([1]; HepG2, comparison of limonin and flavonoids, FIG. 5, read-out: IC50 apo-B content): 43 µM

Compound: COc1ccc([C@@H]2CC(=O)c3c(O)cc(O[C@@H]4O[C@H](CO[C@@H]5O[C@@H](C)[C@H](O)[C@@H](O)[C@H]5O)[C@@H](O)[C@H](O)[C@H]4O)cc3O2)cc1O [hesperidin]
Growth Rate [3]: 0.98 ± 0.24 g/day
Food Consumption [3]: 13.15 ± 4.72 g/day
HDL cholesterol (serum) [4]: 4.07 mM/L
Total cholesterol (serum) [4]: 6.73 mM/L
Total triacylglycerols (serum) [4]: 2.64 ± 1.47 mM/L
VLDL + LDL Cholesterol (serum) [4]: 2.66 mM/L
VLDL + LDL/HDL cholesterol ratio [4]: 0.66
Percent change HDL cholesterol ([4]; 35 days, versus control diet): −7%
Percent change Total cholesterol ([4]; 35 days, versus control diet): −9%
Percent change Total triacylglycerols ([4]; 35 days, versus control diet): −36%
Percent change VLDL + LDL Cholesterol ([4]; 35 days, versus control diet): −12%
reduction of serum HDL cholesterol [4, 7]: 7%
reduction of serum total triacylglycerols [4, 7]: 36%
